# How the values were obtained:
# [1] = Removal of H2S from crude oil in autoclave (Examples 2-3, Comparative Examples 1-2); settings: liquid added at 1% by mass, 80° C., 5 hours, 800 rpm; for H2S concentration of the gas phase part after the reaction: initial 2,580-2,800 ppm
# Description: In a 100-mL autoclave equipped with a thermometer and a stirrer, 30 mL of a crude oil collected in Japan was charged and stirred until an H2S concentration of a gas phase part became constant. Thereafter, the concentration was measured with RX-517 (manufactured by Riken Kiki Co., Ltd.) and found to be 2,800 ppm. Subsequently, a composition liquid prepared by mixing PEG-200 and NL/MOL in a mass ratio of 1/1 was added in a concentration of 1% by mass relative to the crude oil. At this time, the addition amount of NL/MOL was 0.6 mmol, and the presence amount of H2S within the apparatus was 0.05 mmol. Thereafter, the inside of the apparatus was subjected to temperature rise to 80° C. while stirring at 800 rpm, and the contents were allowed to react with each other for 5 hours. After the reaction, the reaction mixture was cooled to room temperature, an H2S concentration of the gas phase part was measured and found to be 2 ppm, and a removal efficiency was 99.9%.
# (§1) In a 100-mL autoclave equipped with a thermometer and a stirrer, 30 mL of a crude oil collected in Japan was charged and stirred until an H2S concentration of a gas phase part became constant. Thereafter, the concentration was measured with RX-517 (manufactured by Riken Kiki. Co., Ltd.) and found to be 2,580 ppm. Subsequently, a 50% by mass MGL aqueous solution was added in a concentration of 1% by mass relative to the crude oil. At this time, the addition amount of MGL was 0.9 mmol, and the presence amount of H2S within the apparatus was 0.05 mmol. Thereafter, the inside of the apparatus was subjected to temperature rise to 80° C. while stirring at 800 rpm, and the contents were allowed to react with each other for 5 hours. After the reaction, the reaction mixture was cooled to room temperature, an H2S concentration of the gas phase part was measured and found to be 70 ppm, and a removal efficiency was 97.3%.
# as §1, with “Kiki” for “Kiki.”, “2,714” for “2,580”, “glutaraldehyde” for “MGL”, “1.0” for “0.9”, “100” for “70”, “96.3%.” for “97.3%.”
# In a 100-mL autoclave equipped with a thermometer and a stirrer, 30 mL of a crude oil collected in Japan was charged and stirred until an H2S concentration of a gas phase part became constant. Thereafter, the concentration was measured with RX-517 (manufactured by Riken Kiki Co., Ltd.) and found to be 2,600 ppm. Subsequently, a 40% by mass glyoxal aqueous solution (manufactured by Wako Pure Chemical Industries, Ltd.) was added in a concentration of 1% by mass relative to the crude oil. At this time, the addition amount of glyoxal was 1.8 mmol, and the presence amount of H2S within the apparatus was 0.04 mmol. Thereafter, the inside of the apparatus was subjected to temperature rise to 80° C. while stirring at 800 rpm, and the contents were allowed to react with each other for 5 hours. After the reaction, the reaction mixture was cooled to room temperature, an H2S concentration of the gas phase part was measured and found to be 498 ppm, and a removal efficiency was 80.8%.
# [2] = tested on: 6-week-old male CRj:CD(SD) rat; assay: Oral toxicity, 14-day repeated oral administration; format: in vivo
# From the text: A test substance which had been emulsified and dispersed in a 2%-gum arabic aqueous solution (containing 0.5%-Tween 80) was compulsorily administered in a 6-week-old male CRj:CD(SD) rat once a day for 14 days by using an oral sonde. A body weight variation and a general state during the administration period were observed. The rat was fasted for one day from the final administration date (drinking was freely taken), and on the day after final administration, taking a blood sample (for various blood tests) and mass measurement of major organs were performed. In addition, with respect to the liver, kidney, spleen, and testis, a histopathological examination (optical microscopic observation of HE-stained thin sliced tissue piece) was also carried out. A dose was set to 1,000, 250, 60, 15, and 0 mg/kg/day (administration liquid volume=1 mL/100 g-body weight/day), respectively, and five animals were used for each dosage.
# (1) NL (GC purity: 99.7%)
# (2) Glutaraldehyde (water content: 101 ppm, GC purity: 99.8%)
# As a result of the test, with respect to NL, no fatal case was admitted even at the highest dose of 1,000 mg/kg/day.
# [3] = tested on: Pseudokirchneriella subcapitata; assay: Alga growth inhibition test (OECD Test Guidelines No. 201); format: cell-based; settings: Selenastrum capricornutum; algae growth inhibition, 23° C., 72 hours; read-out: ErC50 (72 hr)
# Description: An alga growth inhibition test of a test substance was carried out with reference to OECD Test Guidelines No. 201. That is, each of the following test substances was diluted with a test medium to a prescribed dosage. A liquid suspension of algae which had been grown to an exponential growth phase by preculture was added in an initial concentration of 1×10^4 cells/mL. The liquid suspension was subjected to shaking culture at 23° C. using a light irradiation-type bio shaker (BR-180LF, manufactured by Taitec Corporation), the number of algae cells at an elapsed time of 24, 48, and 72 hours, respectively after the start of the test was counted with a flow cytometer (Cell Lab Quant SC, manufactured by Beckman Coulter, Inc.), and a growth ratio at each test dosage was calculated while defining a growth ratio of the normal control as 100%. In addition, ErC50 was calculated according to an equation of an approximate curve of a graph plotting a growth inhibition ratio.
# Algae: Pseudokirchneriella subcapitata
# Dosage of Test Substance:
# Each of the test substance (1) and the test substance (2): 100, 32, 10, 3.2, 1, 0.32 mg/L (common ratio: √10), and 0 mg/L (normal control)
# Standard substance: 3.2, 1, 0.32 mg/L, and 0 mg/L (normal control)
# [4] = tested on: sludge of the sewage treatment plant; assay: Bactericidal test on sludge (MTT method); format: cell-based; settings: sludge bacterial culture, about 25° C., 24 and 48 hours, MTT visual
# Description: To a synthetic sewer water prepared by dissolving 5 g of each of glucose, peptone, and monopotassium dihydrogen phosphate in one liter of water and adjusting the pH at 7.0±1.0 with sodium hydroxide, a sludge of the sewage treatment plant located in the Mizushima district, Kurashiki-shi, Okayama Prefecture, Japan was added in an amount of 30 ppm as converted to dry mass, thereby preparing a bacterial culture. Meanwhile, a test substance was diluted with distilled water on a scale of […] in a final concentration of 1,000 to 0.004 ppm (common ratio=4) on a 24-well microplate, thereby preparing test solutions. Two wells were used for every concentration. As a comparison target, (distilled water+bacterial culture) was defined as “bacterial culture blank”, and distilled water alone was defined as “blank”.
# The above-prepared bacterial culture and test solution were mixed in a volume ratio of 1/1, and the mixture was allowed to stand within a thermostatic tank at ambient temperature (about 25° C.) for 24 hours and 48 hours, respectively. A level of sludge influence at each concentration of the test substance was visually observed by means of the MTT method. An MTT reagent is converted by mitochondria as a microorganism in the sludge to form formazan, thereby developing a blue color.
# (1) Mixture of NL and MOL (GC purity: 98.7%, NL/MOL=59/41) […]
# [5] = rat, oral, once a day for 14 days
SMILES,removal efficiency [1] [%],H2S concentration of the gas phase part after the reaction [1] [ppm],"NOEL (maximum no-effect level) [2, 5] [mg/kg]",EC50 [3] [µg/mL],Sterilizing concentration [4] [ppm],classification as deleterious substance ([2]; rat oral toxicity test),"fatal cases ([2]; rat, oral, once a day for 14 days, highest dose of 1,000 mg/kg/day)"
O=CC=O [glyoxal],80.8,498,,,,,
"O=CCCCC=O [Glutaraldehyde, glutaraldehyde]",96.3,100,5,9,63,,
"O=CCCCCCCCC=O [NL, 1,9-nonanedial]",,,250,,,not corresponding to a “deleterious substance”,no fatal case
"CC(CC=O)CC=O [MGL, 3-methylglutaraldehyde]",97.3,70,,,,,
